The subject of data set [1] is H9. Briefly: Inhibitory concentration required to inhibit uninfected H9 cell growth by 50%. The format is functional, cell-based. As to conditions: Homo sapiens.
Data set [2] has as its system H9. In words: Inhibitory concentration against HIV-1 replication in acutely infected H9 lymphocytes. The format is functional, cell-based. The conditions noted are these: Homo sapiens.
The nature of data set [3]: Therapeutic index (IC50/EC50) of compound was determined in acutely infected H9 cell. The format is cell-based. The conditions noted are these: human, acutely infected H9 cells; read-out: TI.

We go through seven compounds from ChEMBL document CHEMBL1133931, “Anti-AIDS agents. Part 47: Synthesis and anti-HIV activity of 3-substituted 3',4'-Di-O-(S)-camphanoyl-(3'R,4'R)-(+)-cis-khellactone derivatives” (Bioorg Med Chem Lett, 2001).

One may read the IC50 as the point on the concentration scale where inhibition reaches its midpoint. Read a high IC50 as a need for much substance. The term EC50 denotes the concentration that produces a half-maximal response.

For the compound `CC1(C)Oc2ccc3cc(CN)c(=O)oc3c2[C@@H](OC(=O)C23CCC(C)(C(=O)O2)C3(C)C)[C@H]1OC(=O)C12CCC(C)(C(=O)O1)C2(C)C` (stereo partly drawn), the concentration for half-maximal inhibition (IC50) in data set [1] is 32800 nM. This compound also had an EC50 in data set [2] of 390 nM.
In data set [1], `CCN(CC)Cc1cc2ccc3c(c2oc1=O)[C@@H](OC(=O)C12CCC(C)(C(=O)O1)C2(C)C)[C@@H](OC(=O)C12CCC(C)(C(=O)O1)C2(C)C)C(C)(C)O3` (stereo partly drawn) came in with an IC50 of 43000 nM. In addition, in data set [2], the EC50 is 690 nM. The selectivity ratio in data set [3] was determined as 62.
The like results for `CC(=O)OCc1cc2ccc3c(c2oc1=O)[C@@H](OC(=O)C12CCC(C)(C(=O)O1)C2(C)C)[C@@H](OC(=O)C12CCC(C)(C(=O)O1)C2(C)C)C(C)(C)O3` (stereo partly drawn) were, in that order, 3340 nM, 1.03 nM and 3240.
The like results for `CC1(C)Oc2ccc3cc(CO)c(=O)oc3c2[C@@H](OC(=O)C23CCC(C)(C(=O)O2)C3(C)C)[C@H]1OC(=O)C12CCC(C)(C(=O)O1)C2(C)C` (stereo partly drawn) were, in that order, 35400 nM, 0.188 nM and 188000.
The like results for `CC1(C)Oc2ccc3cc(C(Br)Br)c(=O)oc3c2[C@@H](OC(=O)C23CCC(C)(C(=O)O2)C3(C)C)[C@H]1OC(=O)C12CCC(C)(C(=O)O1)C2(C)C` (stereo partly drawn) were, in that order, 3200 nM, 0.119 nM and 26900.
With `CC1(C)Oc2ccc3ccc(=O)oc3c2[C@@H](OC(=O)C23CCC(C)(C(=O)O2)C3(C)C)[C@H]1OC(=O)C12CCC(C)(C(=O)O1)C2(C)C` (stereo partly drawn), the selectivity ratio in data set [3] was found to be 137000.
`CC1(C)Oc2ccc3cc(CBr)c(=O)oc3c2[C@@H](OC(=O)C23CCC(C)(C(=O)O2)C3(C)C)[C@H]1OC(=O)C12CCC(C)(C(=O)O1)C2(C)C` (stereo partly drawn) registered a concentration for half-maximal inhibition (IC50) in data set [1] of 3380 nM. The same compound returned an EC50 in data set [2] of 85.4 nM. Further, the selectivity ratio in data set [3] was 40.
